Results from article PMC13227213, “Design of strictly orthogonal biosensors for maximizing renewable biofuel overproduction” (Journal of Advanced Research, 2025).

What was measured:
BmoR A117T/F163Y = target: T1, BmoR A117T/F163Y (Thauera butanivorans, UniProt A7MAQ9, A117T/F163Y); assay: cell-based; parameters: species or system E. coli XL10-Gold; conditions: n = 3; read-out: Apparent Km
T1 construct: full-length BmoR, biosensor plasmid pWT-A117T/F163Y (PbmoR-bmoR; Pbmo-gfp)
Experimental: (§1) The response values of the above colonies containing various BmoR mutants to n-pentanol, isopentanol, n-butanol or isobutanol were tested. The single colonies were pre-inoculated into 5 mL LB medium with 50 μg/mL carbenicillin and then cultured at 37 °C overnight. […] The excitation and emission wavelengths were set as 470 and 510 nm, respectively. The fluorescence values were normalized as the GFP/OD600 values. Besides, 1 mL of the culture was centrifuged at 5,000 rpm for 5 min. The supernatant was discarded, and the sediment was then resuspended in 2 mL of the physiological saline. 5 μL of the culture was spotted onto glass slides for fluorescence microscopy (UOP 2100). Fifteen colonies which only responded to 10 mM n-pentanol or isopentanol were screened out. The bmoRs in the 15 colonies were amplified and sequenced to identify the mutation sites. Finally, the bmoRs in the five colonies were mutated.
The OD600 values needed to be subtracted from the OD600 value of the blank LB culture. The excitation and emission wavelengths were set as 470 and 510 nm, respectively. The fluorescence values were normalized as the GFP/OD600 values. Besides, the GFP/OD600 values of the strain containing the plasmid pYH7 was regarded as the background fluorescence to be subtracted. Apparent Km values were estimated with Prism 9.5.0 through non-linear regression of the Michaelis-Menten equation. […]

BmoR W128R = target: T2, BmoR W128R (Thauera butanivorans, UniProt A7MAQ9, W128R); assay: Whole-cell BmoR biosensor dose-response (GFP/OD600, Pbmo-gfp reporter) in 96-deep-well plates with 0-60 mM pentanols or 0-100 mM butanols, LB medium at 30 °C, fitted to the Michaelis-Menten equation.; assay type: cell-based, E. coli XL10-Gold; conditions: n = 3; read-out: Apparent Km
T2 construct: full-length BmoR, biosensor plasmid pWT-W128R (PbmoR-bmoR; Pbmo-gfp)
Experimental: as §1
(§2) The OD600 values needed to be subtracted from the OD600 value of the blank LB culture. The excitation and emission wavelengths were set as 470 and 510 nm, respectively. The fluorescence values were normalized as the GFP/OD600 values. Besides, the GFP/OD600 values of the strain containing the plasmid pYH7 was regarded as the background fluorescence to be subtracted. Apparent Km values were estimated with Prism 9.5.0 through non-linear regression of the Michaelis-Menten equation. Finally, one or two effective mutants with orthogonal response towards n-pentanol or isopentanol were obtained.

BmoR WT = target: T3, BmoR WT (Thauera butanivorans, UniProt A7MAQ9); assay: as above; assay type: cell-based, E. coli XL10-Gold; conditions: n = 3; read-out: Apparent Km
T3 construct: full-length BmoR, expressed from biosensor plasmid (PbmoR-bmoR; Pbmo-gfp) in E. coli; hexamer
T3 sequence (A7MAQ9 1-669): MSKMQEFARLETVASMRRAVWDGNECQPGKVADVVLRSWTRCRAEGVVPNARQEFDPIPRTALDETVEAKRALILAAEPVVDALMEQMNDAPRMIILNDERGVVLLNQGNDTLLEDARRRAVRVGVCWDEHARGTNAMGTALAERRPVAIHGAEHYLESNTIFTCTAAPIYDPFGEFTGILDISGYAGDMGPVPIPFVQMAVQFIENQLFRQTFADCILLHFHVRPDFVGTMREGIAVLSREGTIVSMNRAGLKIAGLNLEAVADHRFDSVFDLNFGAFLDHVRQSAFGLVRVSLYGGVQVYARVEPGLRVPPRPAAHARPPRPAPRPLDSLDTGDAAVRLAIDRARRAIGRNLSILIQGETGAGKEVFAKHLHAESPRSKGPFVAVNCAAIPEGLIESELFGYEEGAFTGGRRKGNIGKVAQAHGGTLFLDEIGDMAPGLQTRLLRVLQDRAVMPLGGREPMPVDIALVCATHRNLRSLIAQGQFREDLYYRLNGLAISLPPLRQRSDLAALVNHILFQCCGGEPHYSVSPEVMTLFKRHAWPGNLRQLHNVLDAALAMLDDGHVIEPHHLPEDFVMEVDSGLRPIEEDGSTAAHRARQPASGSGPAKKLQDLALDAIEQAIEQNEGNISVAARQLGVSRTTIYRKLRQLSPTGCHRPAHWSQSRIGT
Experimental: as §1, §2

[1] = target: T4, BmoR WT (fusion with sfGFP) (Thauera butanivorans, UniProt A7MAQ9); assay: MicroScale Thermophoresis of sfGFP-fused BmoR in E. coli BL21(DE3) lysate supernatant, 16-point ligand dilution in assay buffer with 1 % DMSO, incubated at 37 °C for 15 min.; assay type: binding; conditions: n = 3
T4 construct: SUMO-BmoR-TEV-sfGFP-His fusion, E. coli BL21(DE3) lysate supernatant
T4 sequence (A7MAQ9 1-669): T3 sequence (A7MAQ9 1-669)
Experimental: (§3) Plasmids pWT-SUMO-BmoR-TEV-sfGFP-His, pWT-SUMO-BmoR^M94V/A117T/F163Y/F272L-TEV-sfGFP-His, and pWT-SUMO-BmoR^M94V/W128R/F272L-TEV-sfGFP-His were individually transformed into E. coli BL21(DE3). […] Subsequently, 100 µL of the seed culture was transferred to 100 mL LB medium and grown at 37 °C until the OD600 value reached 0.8. 0.1 mM IPTG was added into the culture, and the culture was incubated at 16 °C, 170 rpm for 12–18 h. 50 mL centrifuge tubes were used to centrifuge the culture at 5,000 rpm for 15 min to collect the cell pellets. The pellets were then resuspended in 15 mL of the binding buffer, and the cells were disrupted using the ultrasonic cell crusher. The mixture was then centrifuged at 10,000 rpm for 30 min to collect the supernatant. The Kd values of the wild-type BmoR and the mutants towards four SMs were measured by the MicroScale Thermophoresis (MST, Nanotemper) from Wuhan Bio-lab Biotechnology Co., Ltd.
(§4) A 10 µL aliquot of the supernatant was diluted three folds with the assay buffer. The MST sample chamber was opened, and the tray was removed. The diluted protein sample was aspirated using a capillary and placed in the corresponding slot of the tray. The information of the protein samples and assay bugger was input, and the type of capillary was selected. The excitation power was set to “Auto”, and MST power was set to “High”. The concentration of the samples was adjusted using the assay buffer to 1/3 for BmoR^WT, BmoR^M94V/A117T/F163Y/F272L and BmoR^M94V/W128R/F272L. The samples were diluted to 100 µL/2000 µM using the assay buffer. Two eight-well strips were prepared and labeled from 1st to 16th. 10 µL of the assay buffer (1 % DMSO) was added into the 2nd-16th tubes, while 20 µL of the prepared sample was added to the 1st tube. 10 µL from the 1st tube was sequentially diluted into the 2nd-16th tubes. Subsequently, 10 µL of the lysate was added to each tube and mixed thoroughly. The mixed samples were incubated at 37 °C for 15 min before aspirating with a capillary to load into the sample tray. The software was started to begin the experiment.

[2] = target: T5, BmoR M94V/W128R/F272L (fusion with sfGFP) (Thauera butanivorans, UniProt A7MAQ9, F272L/M94V/W128R); assay: as above; assay type: binding; conditions: n = 3
T5 construct: SUMO-BmoR-TEV-sfGFP-His fusion, E. coli BL21(DE3) lysate supernatant
Experimental: as §3, §4

Δ29 = conditions: equivalent isopentanol stress (40 mM)
Experimental: (§5) A library of E. coli MG1655-derived strains with different genomic large-fragment deletions ranging from 14 to 143 kb was constructed and stored. To screen pentanol-tolerant strains, the strains from the library were inoculated into 3 mL LB medium and cultured at 37 °C for 8–10 h to obtain seed cultures. Subsequently, 50 µL of the seed culture was transferred to 5 mL LB medium in the presence of 20 mM n-pentanol or isopentanol and grown at 37 °C with 220 rpm for 12 h. A microplate reader (BioTek Cytation 3) was used to detect the OD600 values.

Δ33 = conditions: 40 mM
Experimental: as §5

[3] = target: T6, BmoR M94V/A117T/F163Y/F272L (fusion with sfGFP) (Thauera butanivorans, UniProt A7MAQ9, A117T/F163Y/F272L/M94V); assay: MicroScale Thermophoresis of sfGFP-fused BmoR in E. coli BL21(DE3) lysate supernatant, 16-point ligand dilution in assay buffer with 1 % DMSO, incubated at 37 °C for 15 min.; assay type: binding; conditions: n = 3
T6 construct: SUMO-BmoR-TEV-sfGFP-His fusion, E. coli BL21(DE3) lysate supernatant
Experimental: as §3, §4

E. coli MG1655 = assay: Tolerance of wild-type MG1655 to pentanols (OD600)
Experimental: To assess the tolerance of wild-type MG1655 to n-pentanol or isopentanol, the single colony of wild-type MG1655 was inoculated into 3 mL LB medium and cultured at 37 °C for 8–10 h to obtain the seed culture. 50 µL of the seed culture was transferred to 5 mL LB medium adding 0–100 mM n-pentanol or isopentanol and grown at 37 °C with 220 rpm for 12 h. A microplate reader (BioTek Cytation 3) was used to detect the OD600 values.

T2 sequence (A7MAQ9 entry or part of it W128R): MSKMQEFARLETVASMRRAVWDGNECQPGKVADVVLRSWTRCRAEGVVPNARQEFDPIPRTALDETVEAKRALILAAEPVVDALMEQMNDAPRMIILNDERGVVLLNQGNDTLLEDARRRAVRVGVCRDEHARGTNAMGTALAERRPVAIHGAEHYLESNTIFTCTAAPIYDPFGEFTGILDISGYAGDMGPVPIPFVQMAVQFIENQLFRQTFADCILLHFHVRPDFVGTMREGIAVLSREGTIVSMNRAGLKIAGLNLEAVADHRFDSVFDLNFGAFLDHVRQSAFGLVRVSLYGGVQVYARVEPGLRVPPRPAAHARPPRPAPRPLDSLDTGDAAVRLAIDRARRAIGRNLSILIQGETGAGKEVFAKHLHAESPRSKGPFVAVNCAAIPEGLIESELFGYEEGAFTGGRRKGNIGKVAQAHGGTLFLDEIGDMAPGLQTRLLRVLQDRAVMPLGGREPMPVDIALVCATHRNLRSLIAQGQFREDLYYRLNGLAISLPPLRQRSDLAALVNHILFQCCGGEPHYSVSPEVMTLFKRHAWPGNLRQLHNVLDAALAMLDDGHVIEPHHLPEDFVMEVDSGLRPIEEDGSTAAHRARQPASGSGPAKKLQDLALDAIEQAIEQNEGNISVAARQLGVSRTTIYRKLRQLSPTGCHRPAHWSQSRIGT
T1 sequence (A7MAQ9 entry or part of it A117T/F163Y): as the sequence (A7MAQ9 entry or part of it W128R) above, with A117T, R128W, F163Y counted along it
T6 sequence (A7MAQ9 entry or part of it M94V/A117T/F163Y/F272L): as the sequence (A7MAQ9 entry or part of it W128R) above, with M94V, A117T, R128W, F163Y, F272L counted along it
T5 sequence (A7MAQ9 entry or part of it M94V/W128R/F272L): as the sequence (A7MAQ9 entry or part of it W128R) above, with M94V, F272L counted along it

| Compound | EC50 (BmoR A117T/F163Y) | EC50 (BmoR W128R) | EC50 (BmoR WT) | Kd [1] | further results |
| --- | --- | --- | --- | --- | --- |
| CC(C)CO [Isobutanol, 2-methyl-1-propanol] | 22.3 mM | 63.3 mM | 8.75 mM | 11800 nM |  |
| CC(C)CCO [Isopentanol, 3-methyl-1-butanol] |  | 58.2 mM | 3.99 mM | 93.8 nM | Kd [2]: 26.1 nM |
| CC(C)CCO [isopentanol] |  |  |  |  | fold higher biomass accumulation than the wild type (Δ29): 1.58 fold; fold increase of OD600 / biomass compared to the wild type (Δ33): 1.34 fold |
| CCCCCO [n-Pentanol, 1-pentanol] | 59.5 mM |  | 5.09 mM | 106 nM | Kd [3]: 0.322 mM |
| CCCCCO [n-pentanol] |  |  |  |  | fold reduction of OD600 (E. coli MG1655; 20 mM): 2.67 fold; OD600 of wild-type MG1655 (E. coli MG1655; 20 mM, 12 h): 0.420 ± 0.032; growth of wild-type MG1655 (in words) (E. coli MG1655; 60 mM): failing to grow |
